{"source": "patent US6900019B1", "about": "“In-situ cell extraction and assay method” (Amersham Biosciences UK Limited, priority 1997, dated 2005)", "key": {"[1]": {"system": "rabbit anti-cAMP sera (antigen:antibody binding)", "experiment": "Scintillation proximity radioimmunoassay for cAMP: standard curves with lysis reagents and sequestrants", "settings": "for [125I]cAMP bound to SPA beads, counts per minute: 2.5% alpha-cyclodextrin only", "method": "All assays were carried out in microtitre plates compatible with a microtitre plate beta scintillation counter. Standards (50 μl; 0.2-12.8 pmol/well), antisera (50 μl; at 1:11000 dilution), tracer (50 ul; 10000-20000 cpm) are added to anti-rabbit coated SPA beads (50 μl; 20 mg/ml). Non-specific binding was determined in the absence of specific rabbit antisera. SPA anti-rabbit reagent is placed onto a magnetic stirrer to ensure a homogeneous suspension before pipetting. All wells contained a total volume of 200 μl. The plates were sealed and incubated at room temperature (15-30° C.) for 15-20 hours. The amount of [^125I]cAMP bound to the SPA fluomicrospheres was determined by counting in a microtitre plate beta scintillation counter for 2 minutes.\nExperiments were set up with:— • a) Working standards (4-256 pmol/ml; 0.2-12.8 pmol/well) were prepared in assay buffer (0.05M sodium acetate buffer containing 0.01% sodium azide) only (control) or assay buffer containing lysis reagent (e.g. DTAB, CPC or SDS; see experiment 1) at various concentrations. • b) Rabbit anti-cAMP sera prepared in assay buffer only (control) or assay buffer containing sequestrating agent at various concentrations depending on the experiment. • c) Radioactive tracer: adenosine 3′ 5′-cyclic phosphoric acid 2′-O-succinyl-3-[^125I] iodotyrosine methyl ester prepared in assay buffer only (control) or assay buffer containing sequestrating agent at various concentrations depending on the experiment. • d) Donkey anti-rabbit IgG coupled to scintillation proximity fluomicrospheres prepared in assay buffer only (control) or assay buffer containing sequestrating agent at various concentrations depending on the experiment. Experiment 1: Inhibition of Antigen and Antibody Binding by Several Lysis Reagents Method\nIn these experiments, standard curves were prepared for cAMP using the SPA immunoassay technique, described above, where working standards of cAMP were prepared in several lysis reagents at 1% (w/v) or 2% (w/v) final concentration. The detergents investigated included dodecyl trimethyl ammonium bromide (DTAB; Sigma Chemical Co. D8638), benzethonium chloride (BZC; Aldrich; B470-8), cetyl pyridinium chloride (CPC; Sigma Chemical Co; C9002), sodium dodecyl sulphate (SDS, Sigma chemical Co; L4509) and N-dodecyl-N,N-dimethyl-3-ammonio-1-propanesulphonate (DDAPS; Sigma Chemical Co.; D4516).\nIn these experiments, standard curves for cAMP were prepared using the SPA immunoassay technique described above, where working standards of cAMP were prepared in 1% (w/v), 1.5% (w/v) or 2% (w/v) lysis reagents (DTAB, SDS or CPC). The control consisted of no lysis reagent or cyclodextrin added. The effect including 2.5% (w/v) alpha-cyclodextrin (alpha-CD) (Sigma Chemical Co.; C4642) on antigen:antibody binding was investigated. Here, tracer, antisera and SPA beads were prepared in assay buffer containing 2.5% (w/v) alpha-CD. A second control tested the effect of 2.5% (w/v) alpha-CD on the standard curve without addition of lysis reagent.\nIn this experiment, standard curves for cAMP were prepared using the SPA radioimmunoassay where working standards of cAMP were prepared in 1% (w/v) DTAB. The effect of including 1% (w/v), 2% (w/v), 2.5% (w/v) and 5% (w/v) alpha-cyclodextrin on antigen:antibody binding was investigated. Here, tracer, antisera and SPA beads were prepared in assay buffer containing alpha-CD at the above concentrations. The control consisted of no lysis or cyclodextrin added to the assay.\nIn this experiment, standard curves for cAMP were prepared using the SPA immunoassay technique where working standards were prepared 1% (wt) lysis reagent (DTAB). The effect of including 2.5% (w/v) alpha-cyclodextrin (CD) 2.5% (w/v) beta-cyclodextrin (beta-CD) (Sigma is Chemical Co.; C4767) and 2.5% (w/v) gamma-cyclodextrin (gamma-CD) (Sigma Chemical Co.; 4892) on antigen:antibody binding was investigated. […]"}, "[2]": {"system": "binding protein prepared from bovine adrenal cortex", "experiment": "Radioreceptor binding assay for D-myo-inositol 1,4,5-trisphosphate (IP3) with lysis reagent and sequestrant", "settings": "0.5% w/v DTAB in standards, alpha-cyclodextrin 2% final w/v in tracer and adrenal cortex preparation", "method": "Bovine adrenal glands were removed from animals and stored at −20° C. before preparing the binding protein. The cortex was dissected from the adrenal glands, homogenised in NaHCO3 (20 mM) with dithiothreitol (1 mM), and the homogenate centrifuged at 5000 g for 15 minutes. The supernatant was centrifuged at 35000 g for 20 minutes, the resulting pellet resuspended in the homogenisation buffer and centrifuged again at 35000 g for 20 minutes. The final pellet was resuspended in homogenisaton buffer at a protein concentration of between 20-40 mg/ml.\nFor the assay, aliquots (100 μl) of the bovine adrenal cortex microsome preparation were incubated in 100 μl of 0.1M Tris buffer (pH9.0), containing 4 mM EDTA and 4 mg/ml bovine serum albumin. Incubations were carried out for 15 minutes in a final volume of 0.4 ml with [^3H] inositol 1,4,5-trisphosphate (100 μl; 6000 cpm) sample or standard (100 μl; 0.19-25 pmol inositol 1,4,5-trisphosphate/assay tube). Non-specific binding was determined in the presence of 1 nmol inositol 1,4,5-trisphosphate/tube. Incubations were terminated by centrifugation (12000 g) (10 minutes at 4° C.) and removal of the supernatant by gentle decantation. Particulate bound radioactivity was analysed, after suspension in 0.15M sodium hydroxide followed by neutralisation with 10% acetic acid, by liquid scintillation counting […]"}}}
{"smiles": "OC[C@H]1O[C@@H]2O[C@H]3[C@H](O)[C@@H](O)[C@@H](O[C@H]4[C@H](O)[C@@H](O)[C@@H](O[C@H]5[C@H](O)[C@@H](O)[C@@H](O[C@H]6[C@H](O)[C@@H](O)[C@@H](O[C@H]7[C@H](O)[C@@H](O)[C@@H](O[C@H]1[C@H](O)[C@H]2O)O[C@@H]7CO)O[C@@H]6CO)O[C@@H]5CO)O[C@@H]4CO)O[C@@H]3CO", "note": "[CD, alpha-cyclodextrin]", "values": [{"measurement": "restoration of antigen:antibody binding", "setting": "[1]; 1% (w/v) and 2% (w/v) alpha-CD, standards in 1% DTAB", "result": "restored binding to a limited degree"}, {"measurement": "restoration of antigen:antibody binding", "setting": "[1]; 2.5% (w/v) alpha-CD, standards in 1% DTAB", "result": "optimal results"}, {"measurement": "restoration of antigen:antibody binding by different sequestrants", "setting": "[1]; 2.5% (w/v) sequestrant, standards in 1% DTAB", "result": "restored binding to an optimal degree"}, {"measurement": "effect on the cAMP standard curve", "setting": "[1]; 2.5% alpha-CD only, no lysis reagent", "result": "little impact"}, {"measurement": "[125I]cAMP bound to SPA beads, counts per minute", "setting": "[1]; no lysis reagent, 0.2 pmol cAMP/well", "result": 2790, "unit": "cpm"}, {"measurement": "[125I]cAMP bound to SPA beads, counts per minute", "setting": "[1]; no lysis reagent, 0.2 pmol cAMP/well, listed as cyclodextrin", "result": 2358, "unit": "cpm"}, {"measurement": "[125I]cAMP bound to SPA beads, counts per minute", "setting": "[1]; no lysis reagent, 0.4 pmol cAMP/well", "result": 2485, "unit": "cpm"}, {"measurement": "[125I]cAMP bound to SPA beads, counts per minute", "setting": "[1]; no lysis reagent, 0.4 pmol cAMP/well, listed as cyclodextrin", "result": 1979, "unit": "cpm"}, {"measurement": "[125I]cAMP bound to SPA beads, counts per minute", "setting": "[1]; no lysis reagent, 0.8 pmol cAMP/well", "result": 1979, "unit": "cpm"}, {"measurement": "[125I]cAMP bound to SPA beads, counts per minute", "setting": "[1]; no lysis reagent, 0.8 pmol cAMP/well, listed as cyclodextrin", "result": 1682, "unit": "cpm"}, {"measurement": "[125I]cAMP bound to SPA beads, counts per minute", "setting": "[1]; no lysis reagent, 1.6 pmol cAMP/well", "result": 1503, "unit": "cpm"}, {"measurement": "[125I]cAMP bound to SPA beads, counts per minute", "setting": "[1]; no lysis reagent, 1.6 pmol cAMP/well, listed as cyclodextrin", "result": 1499, "unit": "cpm"}, {"measurement": "[125I]cAMP bound to SPA beads, counts per minute", "setting": "[1]; no lysis reagent, 3.2 pmol cAMP/well", "result": 1058, "unit": "cpm"}, {"measurement": "[125I]cAMP bound to SPA beads, counts per minute", "setting": "[1]; no lysis reagent, 3.2 pmol cAMP/well, listed as cyclodextrin", "result": 1143, "unit": "cpm"}, {"measurement": "[125I]cAMP bound to SPA beads, counts per minute", "setting": "[1]; no lysis reagent, 6.4 pmol cAMP/well", "result": 674, "unit": "cpm"}, {"measurement": "[125I]cAMP bound to SPA beads, counts per minute", "setting": "[1]; no lysis reagent, 6.4 pmol cAMP/well, listed as cyclodextrin", "result": 754, "unit": "cpm"}, {"measurement": "[125I]cAMP bound to SPA beads, counts per minute", "setting": "[1]; no lysis reagent, 12.8 pmol cAMP/well", "result": 415, "unit": "cpm"}, {"measurement": "[125I]cAMP bound to SPA beads, counts per minute", "setting": "[1]; no lysis reagent, 12.8 pmol cAMP/well, listed as cyclodextrin", "result": 383, "unit": "cpm"}, {"measurement": "[125I]cAMP bound to SPA beads, counts per minute", "setting": "[1]; no lysis reagent, NSB (no specific antisera)", "result": 155, "unit": "cpm"}, {"measurement": "[125I]cAMP bound to SPA beads, counts per minute", "setting": "[1]; no lysis reagent, NSB (no specific antisera), listed as cyclodextrin", "result": 199, "unit": "cpm"}, {"measurement": "[125I]cAMP bound to SPA beads, counts per minute", "setting": "[1]; no lysis reagent, Zero standard", "result": 3300, "unit": "cpm"}, {"measurement": "[125I]cAMP bound to SPA beads, counts per minute", "setting": "[1]; no lysis reagent, Zero standard, listed as cyclodextrin", "result": 3145, "unit": "cpm"}, {"measurement": "restoration of antigen:antibody binding", "setting": "[1]; 5% (w/v) alpha-CD, standards in 1% DTAB", "result": "inhibitory"}, {"measurement": "binding of [3H]IP3 to the receptor preparation", "setting": "[2]", "result": "Binding was restored"}]}
